Assay results as given in BindingDB's records for doi:10.7270/Q2TX3CTT (Broad Institute, 2010).

Target: Glycogen synthase kinase-3 beta (Homo sapiens, UniProt P49841)
Assay: concentration-response blocking of human GSK3B – biochemical, luminescence, cell-free homogeneous, retest, dose response (AID 434954)

Glycogen synthase kinase-3 beta, sequence (P49841 whole entry): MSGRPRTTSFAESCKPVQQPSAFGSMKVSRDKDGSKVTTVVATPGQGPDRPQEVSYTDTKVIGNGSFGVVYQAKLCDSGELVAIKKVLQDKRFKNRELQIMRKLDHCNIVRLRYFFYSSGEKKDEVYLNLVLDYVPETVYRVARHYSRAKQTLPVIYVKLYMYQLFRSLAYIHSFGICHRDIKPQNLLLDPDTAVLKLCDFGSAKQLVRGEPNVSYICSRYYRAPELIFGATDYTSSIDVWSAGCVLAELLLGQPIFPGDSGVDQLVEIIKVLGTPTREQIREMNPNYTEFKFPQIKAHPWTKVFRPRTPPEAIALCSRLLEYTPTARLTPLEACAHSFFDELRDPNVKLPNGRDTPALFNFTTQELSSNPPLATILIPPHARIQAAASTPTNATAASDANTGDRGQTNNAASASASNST

| EC50 | SMILES |
| --- | --- |
| > 300 µM | CNCCCOc1cc(C)cc(C)c1C [N-methyl-3-(2,3,5-trimethylphenoxy)propan-1-amine;oxalic acid] |
| > 300 µM | CS(=O)(=O)N(CCc1ccccc1)CC(=O)N1CCN(c2ccccc2F)CC1 |
| 12.4 µM | COc1cc(/C=C2\Oc3cc(O)ccc3C2=O)ccc1O |
| 22.1 µM | Cc1ccccc1CSc1nnc(-c2ccncc2)o1 [2-[(2-methylphenyl)methylsulfanyl]-5-pyridin-4-yl-1,3,4-oxadiazole] |
| > 300 µM | CCCCOC(=O)c1ccc(O)cc1 [butyl 4-hydroxybenzoate] |
| > 300 µM | COc1cc2c(cc1OC)C(C)N(C(=O)c1ccc(Br)o1)CC2 (stereo not given) [SMR000269781] |
| > 300 µM | COCCn1c(SCC(=O)Nc2ccc(S(=O)(=O)N(C)C)cc2)nc2ccccc21 [MLS000567111] |
| 4.73 µM | O=C(c1cccs1)c1coc2ccc(O)cc12 |
| 119 µM | CCN(CC)Cc1c(C(=O)NN=Cc2ccco2)nnn1-c1nonc1N [1-(4-amino-1,2,5-oxadiazol-3-yl)-5-(diethylaminomethyl)-N-(2-furanylmethylideneamino)-4-triazolecarboxamide] |
| > 300 µM | O=C(Cc1ccc(F)cc1)NN=Cc1ccc(-c2ccc(Cl)c(C(=O)O)c2)o1 |
| > 300 µM | c1ccc(CCCCNCC2COc3ccccc3O2)cc1 (stereo not given) [N-(2,3-dihydro-1,4-benzodioxin-3-ylmethyl)-4-phenylbutan-1-amine] |
| > 300 µM | NC(=O)CSc1nnc(COc2ccc3ccccc3c2)o1 [MLS001203608] |
| 1.7 µM | Nc1nc(Nc2ccc(Cl)cc2)nc(NCCO)c1[N+](=O)[O-] [2-[[6-amino-2-(4-chloroanilino)-5-nitropyrimidin-4-yl]amino]ethanol] |
| > 300 µM | CCOC(=O)c1c(C)[nH]c(C(=O)CSc2nccc(C)n2)c1C [MLS000391683] |
| 58.8 µM | O=C(CN(Cc1ccccc1)C(=O)CCC(=O)Nc1ccccn1)NCc1ccc(F)cc1 |
| 7.68 µM | Nc1nc(Nc2ccccc2)nc(NC2CCCCC2)c1[N+](=O)[O-] [N4-cyclohexyl-5-nitro-N2-phenylpyrimidine-2,4,6-triamine] |
| > 300 µM | CCCOc1cc(C)nc(-c2ccccc2O)n1 [(6E)-6-(6-methyl-4-propoxy-1H-pyrimidin-2-ylidene)-1-cyclohexa-2,4-dienone] |
| 108 µM | CCOC(=O)c1cnc2ccc(Cl)cc2c1Nc1ccc(S(=O)(=O)Nc2ncccn2)cc1 [ethyl 6-chloro-4-[4-(pyrimidin-2-ylsulfamoyl)anilino]quinoline-3-carboxylate] |
| > 300 µM | CCn1c(SCC(=O)NNC(=O)c2ccc(C)cc2)nnc1C1CC1 [N'-[2-[(5-cyclopropyl-4-ethyl-1,2,4-triazol-3-yl)sulfanyl]acetyl]-4-methylbenzohydrazide] |
| 3.15 µM | CN(C)CCCNc1nc(N)c([N+](=O)[O-])c(NC2CCCCC2)n1 [MLS001213448] |
| > 300 µM | O=C(COc1ccccc1)N1CCN(S(=O)(=O)c2cccs2)CC1 [1-(phenoxyacetyl)-4-(2-thienylsulfonyl)piperazine] |
| > 300 µM | Cc1cc(NC(=O)CSc2nc(-c3cccnc3)ccc2C#N)no1 [MLS000036936] |
| > 300 µM | Cc1nc2sc(C(c3cccc(F)c3)N3CC(C)OC(C)C3)c(O)n2n1 (stereo not given) |
| > 300 µM | c1ccc2c(Nc3nc(-c4ccncc4)nc4ccccc34)cccc2c1 [N-naphthalen-1-yl-2-pyridin-4-ylquinazolin-4-amine] |
| > 300 µM | CCOc1ccc2c(c1)-c1c(ssc1=S)C(C)(C)N2C [MLS000529181] |
| 42.6 µM | COc1cc(/C=C2/C(=O)NN(c3cccc(Cl)c3)C2=O)cc(Br)c1O [MLS001210835] |

Further lines, the compound ahead of its results:

| SMILES | EC50 |
| --- | --- |
| COc1cccc(CN=Nc2cc(Cl)nc(C)n2)c1O [SMR000274053] | > 300 µM |
| CCc1n[nH]c(=S)n1N=CC(C)=Cc1ccccc1 [MLS001164489] | > 300 µM |
| CCN1CCN(c2c(C=O)c(Cl)nc3ccc(OC)cc23)CC1 | 5.67 µM |
| Cc1ccc(OCC(=O)NN=Cc2ccccc2)c([N+](=O)[O-])c1 [2-(4-methyl-2-nitro-phenoxy)-N-[(phenylmethylidene)amino]ethanamide] | > 300 µM |
| c1ccc(OCCCn2nnc(-c3ccncc3)n2)cc1 [SMR000008082] | 20.3 µM |
| O=C(Nc1ncc(Cc2ccccc2)s1)C1CCCO1 (stereo not given) [MLS000100685] | 17.6 µM |
| COc1ccc(-c2nn(-c3ccccc3)cc2CN=Nc2ccccn2)cc1 [MLS000336205] | > 300 µM |
| CCCCCC(=O)N1CCN(S(=O)(=O)c2ccc3c(c2)OCCCO3)CC1 [MLS001161784] | > 300 µM |
| Cc1ccc(C)c(N2CCN(C(=O)Cn3ncc4c([nH]c5ccc(C)cc54)c3=O)CC2)c1 [3-[2-[4-(2,5-dimethylphenyl)piperazin-1-yl]-2-oxidanylidene-ethyl]-8-methyl-2H-pyridazino[4,5-b]indol-4-one] | > 300 µM |
| CCN1/C(=C/c2ccc3cccc(C)c3[n+]2CC)Sc2ccccc21 [(2Z)-3-ethyl-2-[(1-ethyl-8-methyl-2-quinolin-1-iumyl)methylidene]-1,3-benzothiazole;iodide] | > 300 µM |
| O=c1cc(-c2ccccc2Cl)oc2c(Br)ccc(O)c12 [8-bromo-2-(2-chlorophenyl)-5-hydroxy-1-benzopyran-4-one] | > 300 µM |
| Cc1ccc(C)c(S(=O)(=O)NCc2ccc(C(=O)N3CC(C)OC(C)C3)cc2)c1 (stereo not given) [N-[[4-(2,6-dimethylmorpholin-4-yl)carbonylphenyl]methyl]-2,5-dimethyl-benzenesulfonamide] | > 300 µM |
| CCCCC(=O)Nc1nn(CC(C)C)c2nc3ccccc3cc12 [SMR000043369] | > 300 µM |
| CCn1nc(NC(=O)C2CCCO2)c2cc3cccc(C)c3nc21 (stereo not given) [Tetrahydro-furan-2-carboxylic acid (1-ethyl-8-methyl-1H-pyrazolo[3,4-b]quinolin-3-yl)-amide] | > 300 µM |
| CN(C)c1nc(N)c([N+](=O)[O-])c(NCC2CCCO2)n1 (stereo not given) [SMR000436172] | > 300 µM |
| COc1ccc(/C=C2/SC(NS(=O)(=O)Cc3ccccc3)=NC2=O)cc1OC [N-[(5E)-5-[(3,4-dimethoxyphenyl)methylidene]-4-oxo-2-thiazolyl]-1-phenylmethanesulfonamide] | > 300 µM |
| COc1ccc(C(=O)OCCc2ccc(O)cc2)cc1 | > 300 µM |
| CSc1nc2c(c(=O)[nH]1)C(c1ccccc1)C1C(=O)CC(C)(C)CC1=N2 (stereo not given) [8,8-dimethyl-2-(methylthio)-5-phenyl-5,8,9,10-tetrahydropyrimido[4,5-b]quinoline-4,6(3H,7H)-dione] | > 300 µM |
| OCC1(Cc2ccccc2)CCN(Cc2ccc(-c3ccco3)cc2)CC1 [[1-[[4-(2-furanyl)phenyl]methyl]-4-(phenylmethyl)-4-piperidinyl]methanol] | > 300 µM |
| O=[N+]([O-])c1ccccc1S(=O)(=O)N1CCc2ccccc2C1 [SMR000273931] | > 300 µM |
| O=C(OCCCCOC(=O)c1ccccc1)c1ccccc1 [SMR000459786] | > 300 µM |
| COc1cccc(C2c3c([nH]n(-c4ccccc4)c3=O)N=C3CCCC(=O)C32)c1 (stereo not given) [3-hydroxy-4-(3-methoxyphenyl)-2-phenyl-2,4,6,7,8,9-hexahydro-5H-pyrazolo[3,4-b]quinolin-5-one] | > 300 µM |
| C=c1cc2[nH]c(=O)c(=Cc3ccc(OCC)c(OC)c3)c(=N)n2o1 [SMR000309341] | > 300 µM |
| CCOCCCn1c(=NC(C)=O)c(C#N)cc2c(=O)n3cccc(C)c3nc21 [SMR000436200] | > 300 µM |
